We go through 51 molecules from ChEMBL document CHEMBL4028802, “DILIrank: the largest reference drug list ranked by the risk for developing drug-induced liver injury in humans” (Drug Discov Today, 2016).

The structures appear in SMILES notation.

The species named for series [1] is Homo sapiens. The experiment in a line: Liver toxicity in human assessed as induction of drug-induced liver injury by measuring severity class index.
The species entered for series [2] is Homo sapiens. The experiment in a line: Liver toxicity in human assessed as induction of drug-induced liver injury by measuring verified drug-induced liver injury concern status.
For DILI severity class in this document: key of the grades not given here.

With `Clc1ccc(C(c2ccccc2Cl)C(Cl)Cl)cc1` (configuration not stated) [MITOTANE], the DILI_severity_class in the series listed under Homo sapiens [1] is on record as 0. In the series filed under Homo sapiens [2], the DILI_Concern entry was “No-Dili-Concern”.
Regarding `O=C1c2c(O)ccc(O)c2C(=O)c2c(NCCNCCO)ccc(NCCNCCO)c21` [MITOXANTRONE], the DILI_severity_class in the series filed under Homo sapiens [1] is 3. The DILI_Concern result in the series filed under Homo sapiens [2] is given as “Less-Dili-Concern”.
Consider `NC(=O)C[S+]([O-])C(c1ccccc1)c1ccccc1` (configuration not stated) [MODAFINIL], for which, in the series listed under Homo sapiens [1], the DILI_severity_class amounted to 3. For the same molecule, the DILI_Concern entry in the series filed under Homo sapiens [2] is reported as “Less-Dili-Concern”.
Consider `CCOC(=O)[C@H](CCc1ccccc1)N[C@@H](C)C(=O)N1Cc2cc(OC)c(OC)cc2C[C@H]1C(=O)O` [MOEXIPRIL], for which the DILI_severity_class in the series filed under Homo sapiens [1] was determined as 3. The DILI_Concern result in the series filed under Homo sapiens [2] was “Ambiguous-Dili-Concern”.
Turning to `CC(C)(O)c1ccccc1CC[C@@H](SCC1(CC(=O)O)CC1)c1cccc(/C=C/c2ccc3ccc(Cl)cc3n2)c1` [MONTELUKAST], the DILI_severity_class in the series filed under Homo sapiens [1] amounted to 3. For the same molecule, the DILI_Concern result in the series listed under Homo sapiens [2] is on record as “Less-Dili-Concern”.
The like results for `CCOC(=O)Nc1ccc2c(c1)N(C(=O)CCN1CCOCC1)c1ccccc1S2` [MORICIZINE] were, in that order, 5 and “Ambiguous-Dili-Concern”.
Regarding `CN1CC[C@]23c4c5ccc(O)c4O[C@H]2[C@@H](O)C=C[C@H]3[C@H]1C5` [MORPHINE], the DILI_severity_class in the series filed under Homo sapiens [1] came to 0. Besides, the DILI_Concern result in the series listed under Homo sapiens [2] is “No-Dili-Concern”.
`COc1c(N2C[C@@H]3CCCN[C@@H]3C2)c(F)cc2c(=O)c(C(=O)O)cn(C3CC3)c12` [MOXIFLOXACIN]: in the series filed under Homo sapiens [1], the DILI_severity_class came to 8. In the series listed under Homo sapiens [2], the DILI_Concern entry is reported as “Less-Dili-Concern”.
In the case of `CC(=O)Oc1cc(C(C)C)c(OCCN(C)C)cc1C` [MOXISYLYTE], the DILI_severity_class in the series filed under Homo sapiens [1] came out at 8. Besides, in the series listed under Homo sapiens [2], the DILI_Concern result is on record as “Most-Dili-Concern”.
For `COc1c(C)c2c(c(O)c1C/C=C(\C)CCC(=O)OCCN1CCOCC1)C(=O)OC2` [MYCOPHENOLATE MOFETIL], in the series filed under Homo sapiens [1], the DILI_severity_class worked out at 3. Further, the DILI_Concern entry in the series filed under Homo sapiens [2] is on record as “Less-Dili-Concern”.
With `COc1c(C)c2c(c(O)c1C/C=C(\C)CCC(=O)O)C(=O)OC2` [MYCOPHENOLIC ACID], the DILI_severity_class in the series listed under Homo sapiens [1] was found to be 3. Also, the DILI_Concern result in the series filed under Homo sapiens [2] is “Ambiguous-Dili-Concern”.
The like results for `CCCCCCC(C)(C)c1cc(O)c2c(c1)OC(C)(C)C1CCC(=O)CC21` (configuration not stated) [NABILONE] were, in that order, 0 and “No-Dili-Concern”.
The corresponding values for `COc1ccc2cc(CCC(C)=O)ccc2c1` [NABUMETONE] are 3 and “Ambiguous-Dili-Concern”.
With `CC(C)(C)NCC(O)COc1cccc2c1CC(O)C(O)C2` (configuration not stated) [NADOLOL], in the series filed under Homo sapiens [1], the DILI_severity_class is 3. In the series filed under Homo sapiens [2], the DILI_Concern result was “Ambiguous-Dili-Concern”.
For the molecule `CCOc1ccc2ccccc2c1C(=O)N[C@@H]1C(=O)N2[C@@H]1SC(C)(C)[C@@H]2C(=O)O` [NAFCILLIN], in the series filed under Homo sapiens [1], the DILI_severity_class stood at 3. In addition, in the series filed under Homo sapiens [2], the DILI_Concern result is on record as “Less-Dili-Concern”.
For the molecule `Oc1ccc2c3c1O[C@H]1[C@@H](O)CC[C@@]4(O)[C@@H](C2)N(CC2CCC2)CC[C@]314` [NALBUPHINE], the DILI_severity_class in the series filed under Homo sapiens [1] came out at 0. Moreover, in the series filed under Homo sapiens [2], the DILI_Concern result was “No-Dili-Concern”.
The like results for `CCn1cc(C(=O)O)c(=O)c2ccc(C)nc21` [NALIDIXIC ACID] were, in that order, 3 and “Ambiguous-Dili-Concern”.
Take `C=C1CC[C@@]2(O)[C@H]3Cc4ccc(O)c5c4[C@@]2(CCN3CC2CC2)[C@H]1O5.Cl` [NALMEFENE HYDROCHLORIDE]: the DILI_severity_class in the series filed under Homo sapiens [1] came out at 3. Further, in the series listed under Homo sapiens [2], the DILI_Concern result is given as “Ambiguous-Dili-Concern”.
`C=CCN1CC[C@]23c4c5ccc(O)c4O[C@H]2C(=O)CC[C@@]3(O)[C@H]1C5` [NALOXONE]: the DILI_severity_class in the series listed under Homo sapiens [1] turned out to be 0. The DILI_Concern result in the series filed under Homo sapiens [2] is “No-Dili-Concern”.
The corresponding values for `O=C1CC[C@@]2(O)[C@H]3Cc4ccc(O)c5c4[C@@]2(CCN3CC2CC2)[C@H]1O5` [NALTREXONE] are 3 and “Ambiguous-Dili-Concern”.
The like results for `CCCCCCCCCC(=O)O[C@H]1CC[C@H]2[C@@H]3CCC4=CC(=O)CC[C@@H]4[C@H]3CC[C@]12C` [NANDROLONE DECANOATE] were, in that order, 7 and “Most-Dili-Concern”.
Take `COc1ccc2cc([C@H](C)C(=O)O)ccc2c1` [NAPROXEN]: in the series listed under Homo sapiens [1], the DILI_severity_class was 3. Further, the DILI_Concern result in the series filed under Homo sapiens [2] is on record as “Less-Dili-Concern”.
With `CC(C)[C@H]1CC[C@H](C(=O)N[C@H](Cc2ccccc2)C(=O)O)CC1` [NATEGLINIDE], in the series listed under Homo sapiens [1], the DILI_severity_class is reported as 3. For the same molecule, the DILI_Concern result in the series filed under Homo sapiens [2] is “Ambiguous-Dili-Concern”.
With `OC(CNCC(O)C1CCc2cc(F)ccc2O1)C1CCc2cc(F)ccc2O1` (configuration not stated) [NEBIVOLOL], in the series listed under Homo sapiens [1], the DILI_severity_class worked out at 3. For the same molecule, the DILI_Concern result in the series filed under Homo sapiens [2] is recorded as “Ambiguous-Dili-Concern”.
In the case of `CCc1nn(CCCN2CCN(c3cccc(Cl)c3)CC2)c(=O)n1CCOc1ccccc1` [NEFAZODONE], the DILI_severity_class in the series filed under Homo sapiens [1] worked out at 8. Further, in the series listed under Homo sapiens [2], the DILI_Concern entry is given as “Most-Dili-Concern”.
Turning to `COc1nc(N)nc2c1ncn2[C@@H]1O[C@H](CO)[C@@H](O)[C@@H]1O` [NELARABINE], in the series filed under Homo sapiens [1], the DILI_severity_class was 4. In the series listed under Homo sapiens [2], the DILI_Concern result is reported as “Less-Dili-Concern”.
Regarding `Cc1ccnc2c1NC(=O)c1cccnc1N2C1CC1` [NEVIRAPINE], the DILI_severity_class in the series listed under Homo sapiens [1] was found to be 8. Moreover, the DILI_Concern result in the series filed under Homo sapiens [2] was “Most-Dili-Concern”.
With `O=C(CCNNC(=O)c1ccncc1)NCc1ccccc1` [NIALAMIDE], in the series filed under Homo sapiens [1], the DILI_severity_class is reported as 8. Also, the DILI_Concern entry in the series listed under Homo sapiens [2] is given as “Most-Dili-Concern”.
Consider `COC(=O)C1=C(C)NC(C)=C(C(=O)OCCN(C)Cc2ccccc2)C1c1cccc([N+](=O)[O-])c1` (configuration not stated) [NICARDIPINE], for which the DILI_severity_class in the series listed under Homo sapiens [1] is given as 3. In the series filed under Homo sapiens [2], the DILI_Concern result was “Ambiguous-Dili-Concern”.
`COC(=O)C1=C(C)NC(C)=C(C(=O)OC)C1c1ccccc1[N+](=O)[O-]` [NIFEDIPINE]: the DILI_severity_class in the series filed under Homo sapiens [1] is 3. Moreover, in the series listed under Homo sapiens [2], the DILI_Concern result is reported as “Less-Dili-Concern”.
`Cc1cn(-c2cc(NC(=O)c3ccc(C)c(Nc4nccc(-c5cccnc5)n4)c3)cc(C(F)(F)F)c2)cn1` [NILOTINIB]: the DILI_severity_class in the series filed under Homo sapiens [1] came to 4. For the same molecule, the DILI_Concern result in the series filed under Homo sapiens [2] is reported as “Ambiguous-Dili-Concern”.
On to `CC1(C)NC(=O)N(c2ccc([N+](=O)[O-])c(C(F)(F)F)c2)C1=O` [NILUTAMIDE], for which the DILI_severity_class in the series filed under Homo sapiens [1] stood at 8. In addition, the DILI_Concern result in the series listed under Homo sapiens [2] was “Most-Dili-Concern”.
With `CS(=O)(=O)Nc1ccc([N+](=O)[O-])cc1Oc1ccccc1` [NIMESULIDE], the DILI_severity_class in the series filed under Homo sapiens [1] stood at 8. Also, in the series filed under Homo sapiens [2], the DILI_Concern entry was “Most-Dili-Concern”.
Turning to `COCCOC(=O)C1=C(C)NC(C)=C(C(=O)OC(C)C)C1c1cccc([N+](=O)[O-])c1` (configuration not stated) [NIMODIPINE], the DILI_severity_class in the series listed under Homo sapiens [1] is listed as 3. The DILI_Concern entry in the series filed under Homo sapiens [2] is “Ambiguous-Dili-Concern”.
As for `CN(C)Cc1ccc(CSCCN/C(=C\[N+](=O)[O-])NCc2ccc3c(c2)OCO3)o1` [NIPEROTIDINE], in the series listed under Homo sapiens [1], the DILI_severity_class was 8. In addition, in the series filed under Homo sapiens [2], the DILI_Concern entry is listed as “Most-Dili-Concern”.
The like results for `COC(=O)C1=C(C)NC(C)=C(C(=O)OCC(C)C)C1c1ccccc1[N+](=O)[O-]` (configuration not stated) [NISOLDIPINE] were, in that order, 3 and “Ambiguous-Dili-Concern”.
As to `CC(=O)Oc1ccccc1C(=O)Nc1ncc([N+](=O)[O-])s1` [NITAZOXANIDE], the DILI_severity_class in the series filed under Homo sapiens [1] was 0. In the series listed under Homo sapiens [2], the DILI_Concern result is listed as “No-Dili-Concern”.
With `O=C1CCCC(=O)C1C(=O)c1ccc(C(F)(F)F)cc1[N+](=O)[O-]` [NITISINONE], in the series listed under Homo sapiens [1], the DILI_severity_class came to 7. Further, the DILI_Concern entry in the series listed under Homo sapiens [2] is given as “Ambiguous-Dili-Concern”.
Consider `Cc1nc([N+](=O)[O-])cn1-c1ccc([N+](=O)[O-])cc1` [NITREFAZOLE], for which the DILI_severity_class in the series listed under Homo sapiens [1] stood at 8. In addition, in the series listed under Homo sapiens [2], the DILI_Concern entry is “Most-Dili-Concern”.
For `O=C1CN(/N=C/c2ccc([N+](=O)[O-])o2)C(=O)N1` [NITROFURANTOIN], in the series listed under Homo sapiens [1], the DILI_severity_class is given as 8. Also, the DILI_Concern result in the series listed under Homo sapiens [2] is listed as “Most-Dili-Concern”.
The corresponding values for `O=[N+]([O-])OCC(CO[N+](=O)[O-])O[N+](=O)[O-]` [NITROGLYCERIN] are 0 and “No-Dili-Concern”.
The corresponding values for `CNC(=C[N+](=O)[O-])NCCSCc1csc(CN(C)C)n1` [NIZATIDINE] are 5 and “Less-Dili-Concern”.
On to `CN1Cc2c(N)cccc2C(c2ccccc2)C1` (configuration not stated) [NOMIFENSINE], for which the DILI_severity_class in the series filed under Homo sapiens [1] turned out to be 8. Also, the DILI_Concern entry in the series listed under Homo sapiens [2] is “Most-Dili-Concern”.
Consider `NC[C@H](O)c1ccc(O)c(O)c1` [NOREPINEPHRINE], for which the DILI_severity_class in the series listed under Homo sapiens [1] amounted to 0. The DILI_Concern entry in the series listed under Homo sapiens [2] is “No-Dili-Concern”.
In the case of `CCn1cc(C(=O)O)c(=O)c2cc(F)c(N3CCNCC3)cc21` [NORFLOXACIN], the DILI_severity_class in the series listed under Homo sapiens [1] was determined as 3. Moreover, the DILI_Concern entry in the series filed under Homo sapiens [2] is recorded as “Less-Dili-Concern”.
The like results for `CNCCC=C1c2ccccc2CCc2ccccc21` [NORTRIPTYLINE] were, in that order, 8 and “Most-Dili-Concern”.
`C[C@@H](O)[C@@H]1NC(=O)[C@H](CCCCN)NC(=O)[C@@H](Cc2c[nH]c3ccccc23)NC(=O)[C@H](Cc2ccccc2)NC(=O)[C@@H](NC(=O)[C@H](N)Cc2ccccc2)CSSC[C@@H](C(=O)N[C@H](CO)[C@@H](C)O)NC1=O` [OCTREOTIDE]: the DILI_severity_class in the series listed under Homo sapiens [1] came out at 2. The DILI_Concern result in the series listed under Homo sapiens [2] is listed as “Less-Dili-Concern”.
The like results for `CC1COc2c(N3CCN(C)CC3)c(F)cc3c(=O)c(C(=O)O)cn1c23` (configuration not stated) [OFLOXACIN] were, in that order, 3 and “Less-Dili-Concern”.
The like results for `Cc1cc2c(s1)Nc1ccccc1N=C2N1CCN(C)CC1` [OLANZAPINE] were, in that order, 3 and “Less-Dili-Concern”.
For the molecule `CCCc1nc(C(C)(C)O)c(C(=O)OCc2oc(=O)oc2C)n1Cc1ccc(-c2ccccc2-c2nnn[nH]2)cc1` [OLMESARTAN MEDOXOMIL], the DILI_severity_class in the series listed under Homo sapiens [1] was 4. The DILI_Concern result in the series filed under Homo sapiens [2] is “Ambiguous-Dili-Concern”.
The corresponding values for `O=C(O)c1cc(/N=N/c2ccc(O)c(C(=O)O)c2)ccc1O` [OLSALAZINE] are 8 and “Less-Dili-Concern”.
